Drawing on patent US20190071416A1, “COMPOUNDS FOR TREATMENT OF CANCER AND EPIGENETICS” (Agency For Science, Technology and Research, priority 2015, published 2019), this text covers IC50 for 31 molecules.

The IC50 is the concentration needed to halve the response being measured.

This assay addresses T1, SMYD3 (Homo sapiens, UniProt Q9H7B4).
T1 sequence (Q9H7B4 1-428): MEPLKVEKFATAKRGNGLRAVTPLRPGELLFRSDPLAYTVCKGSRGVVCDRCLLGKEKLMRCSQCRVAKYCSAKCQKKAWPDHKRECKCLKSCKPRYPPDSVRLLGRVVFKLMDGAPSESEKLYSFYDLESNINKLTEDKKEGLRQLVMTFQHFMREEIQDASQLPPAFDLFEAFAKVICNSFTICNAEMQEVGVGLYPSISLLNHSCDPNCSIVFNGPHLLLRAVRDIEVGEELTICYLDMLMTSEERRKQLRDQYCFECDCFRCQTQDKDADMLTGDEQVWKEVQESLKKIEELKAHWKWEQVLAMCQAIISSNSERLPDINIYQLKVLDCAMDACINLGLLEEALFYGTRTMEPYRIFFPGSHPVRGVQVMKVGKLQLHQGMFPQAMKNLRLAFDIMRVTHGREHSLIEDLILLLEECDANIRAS
Nature of the assay: SMYD3 biochemical assay (MTase-Glo, MAP3K2 peptide substrate). Conditions: Table 3; MTase assay, MAP3K2 peptide substrate; read-out: IC50. Here is the method:
A SMYD3 enzymatic assay was developed using Promega's Methyltransferase-Glo™ reagents. In the assay, SMYD3 catalyzes the methylation of the MAP3K2 peptide substrate by transferring a methyl group from SAM to MAP3K2 peptide and further converts the SAM to SAH. The SMYD3 methyltransferase activity is measured based on the amount of SAH produced from the reaction through the use of coupling enzymes that convert the SAH to ATP. The MTase-Glo detection solution then catalyzes the formation of light from ATP.
A final concentration of 1.0 μM and 10 μM SAM and MAP3K2 peptide were added and further incubated for 30 min at room temperature before adding the MTase Glo and detection reagent. Reaction signals were detected using microplate readers on luminescent mode (Safire Tecan). The IC50 was determined by non-linear regression, using GraphPad Prism version, 5.03.
`CCCOC(=O)N1CCN(C(=O)c2ccc3c(Cl)c4c(nc3c2)CCCC4)C(C)C1` (stereo not shown) [A031, Propyl 4-(9-chloro-5,6,7,8-tetrahydroacridine-3-carbonyl)-3-methylpiperazine-1-carboxylate]: the IC50 turned out to be 150 nM.
In the case of `CCCOC(=O)N1CCN(C(=O)c2ccc3c(Cl)c4c(nc3c2)CCCC4)CC1CO` (stereo not shown) [A032, Propyl 4-(9-chloro-5,6,7,8-tetrahydroacridine-3-carbonyl)-2-(hydroxymethyl)piperazine-1-carboxylate] it was 1200 nM; in that of `CCCOC(=O)N1CCN(C(=O)c2ccc3c(Cl)c4c(nc3c2)CCCC4)C(C)C1C` (stereo not shown) [A033, Propyl 4-(9-chloro-5,6,7,8-tetrahydroacridine-3-carbonyl)-2,3-dimethylpiperazine-1-carboxylate], 1800 nM; in that of `CCCOC(=O)N1CCN(C(=O)c2ccc3c(Cl)c4c(nc3c2)CCC(CC(=O)OC)C4)CC1` (stereo not shown) [A034, Propyl 4-(9-chloro-7-(2-methoxy-2-oxoethyl)-5,6,7,8-tetrahydroacridine-3-carbonyl)piperazine-1-carboxylate], 380 nM.
In the case of `CCCOC(=O)N1CCN(C(=O)c2ccc3c(Cl)c4c(nc3c2)CCCC4)CC1(C)C` [A035, Propyl 4-(9-chloro-5,6,7,8-tetrahydroacridine-3-carbonyl)-2,2-dimethylpiperazine-1-carboxylate] it was 8200 nM; in that of `CCCOC(=O)N1CCN(C(=O)c2ccc3c(Cl)c4c(nc3c2)CCCC4)CC12CC2` [A036, Propyl 7-(9-chloro-5,6,7,8-tetrahydroacridine-3-carbonyl)-4,7-diazaspiro[2.5]octane-4-carboxylate], 6700 nM.
In the case of `CCCOC(=O)N1CCN(C(=O)c2ccc3c(Cl)c4c(nc3c2)CCCC4)C2(CC2)C1` [A037, Propyl 4-(9-chloro-5,6,7,8-tetrahydroacridine-3-carbonyl)-4,7-diazaspiro[2.5]octane-7-carboxylate] it was 8400 nM; in that of `CCCCOC(=O)N1CCN(C(=O)c2ccc3c(Cl)c4c(nc3c2)CCCC4)CC1` [A038, Butyl 4-(9-chloro-5,6,7,8-tetrahydroacridine-3-carbonyl)piperazine-1-carboxylate], 420 nM; in that of `Cc1cc(C(=O)N2C3CCCC2CN(C(=O)c2ccc4c(Cl)c5c(nc4c2)CCCC5)C3)no1` [A039, (9-Chloro-5,6,7,8-tetrahydroacridin-3-yl)(9-(5-methylisoxazole-3-carbonyl)-3,9-diazabicyclo[3.3.1]nonan-3-yl)methanone], 1300 nM.
With `Cc1cc(C(=O)N2C3CCCC2CN(C(=O)c2ccc4c(Cl)c5c(nc4c2)CCCC5)C3)n[nH]1` [A040, (9-Chloro-5,6,7,8-tetrahydroacridin-3-yl)(9-(5-methyl-1H-pyrazole-3-carbonyl)-3,9-diazabicyclo[3.3.1]nonan-3-yl)methanone], the concentration for half-maximal inhibition (IC50) came out at 10900 nM.
Next, `CCCCOC(=O)N1C2CCCC1CN(C(=O)c1ccc3c(Cl)c4c(nc3c1)CCCC4)C2` [A041, Butyl 3-(9-chloro-5,6,7,8-tetrahydroacridine-3-carbonyl)-3,9-diazabicyclo[3.3.1]nonane-9-carboxylate]: 260 nM; `CCCOC(=O)N1CCN(C(=O)c2ccc3c(Cl)c4c(nc3c2)CCCC4)CC1C(=O)OC` (stereo not shown) [A042, 2-Methyl 1-propyl 4-(9-chloro-5,6,7,8-tetrahydroacridine-3-carbonyl)piperazine-1,2-dicarboxylate]: 5200 nM.
Next, `CCCOC(=O)N1CC(C)N(C(=O)c2ccc3c(Cl)c4c(nc3c2)CCCC4)C(C)C1` (stereo not shown) [A043, Propyl 4-(9-chloro-5,6,7,8-tetrahydroacridine-3-carbonyl)-3,5-dimethylpiperazine-1-carboxylate]: 550 nM; `CCCOC(=O)N1CCN(C(=O)c2ccc3c(Cl)c4c(nc3c2)CC(C(=O)OC)CC4)CC1` (stereo not shown) [A044, Methyl 9-chloro-6-(4-(propoxycarbonyl)piperazine-1-carbonyl)-1,2,3,4-tetrahydroacridine-3-carboxylate]: 620 nM; `CCCOC(=O)N1CCN(C(=O)c2ccc3c(Cl)c4c(nc3c2)CCC(CN)C4)CC1` (stereo not shown) [A045, Propyl 4-(7-(aminomethyl)-9-chloro-5,6,7,8-tetrahydroacridine-3-carbonyl)piperazine-1-carboxylate]: 1200 nM.
In the case of `CCCOC(=O)N1CCN(C(=O)c2ccc3c(Cl)c4c(nc3c2)CCC(C#N)C4)CC1` (stereo not shown) [A046, Propyl 4-(9-chloro-7-cyano-5,6,7,8-tetrahydroacridine-3-carbonyl)piperazine-1-carboxylate] it was 800 nM.
With `C=CCC1CCc2c(nc3cc(C(=O)N4CCN(C(=O)OCCC)CC4)ccc3c2Cl)C1` (stereo not shown) [A047, Propyl 4-(6-allyl-9-chloro-5,6,7,8-tetrahydroacridine-3-carbonyl)piperazine-1-carboxylate], the IC50 came out at 600 nM.
Take `CCCOC(=O)N1CCN(C(=O)c2ccc3c(Cl)c4c(nc3c2)CCCC4)CC1C(=O)NC` (stereo not shown) [A048, Propyl 4-(9-chloro-5,6,7,8-tetrahydroacridine-3-carbonyl)-2-(methylcarbamoyl)piperazine-1-carboxylate]: the IC50 was determined as 6100 nM.
For `CCCNC(=O)N1CCN(C(=O)c2ccc3c(Cl)c4c(nc3c2)CCCC4)CC1` [A049, 4-(9-Chloro-5,6,7,8-tetrahydroacridine-3-carbonyl)-N-propylpiperazine-1-carboxamide], the half-maximal inhibitory concentration (IC50) worked out at 6400 nM.
In the case of `C=CCCC(=O)N1CCN(C(=O)c2ccc3c(Cl)c4c(nc3c2)CCCC4)CC1` [A050, 1-(4-(9-Chloro-5,6,7,8-tetrahydroacridine-3-carbonyl)piperazin-1-yl)pent-4-en-1-one] it was 3500 nM; in that of `CCCOC(=O)N1CCN(C(=O)c2ccc3c(Cl)c4c(nc3c2)CCCC4)C(C(=O)OC)C1` (stereo not shown) [A051, 3-Methyl 1-propyl 4-(9-chloro-5,6,7,8-tetrahydroacridine-3-carbonyl)piperazine-1,3-dicarboxylate], 650 nM.
As to `CCCOC(=O)N1CCN(C(=O)c2ccc3c(Cl)c4c(nc3c2)CCCC4)CC1COC(C)=O` (stereo not shown) [A052, Propyl 2-(acetoxymethyl)-4-(9-chloro-5,6,7,8-tetrahydroacridine-3-carbonyl)piperazine-1-carboxylate], the IC50 came to 1800 nM.
Turning to `CCCOC(=O)N1CCN(C(=O)c2ccc3c(Cl)c4c(nc3c2)CC(c2ccccn2)CC4)CC1` (stereo not shown) [A053, Propyl 4-(9-chloro-6-(pyridin-2-yl)-5,6,7,8-tetrahydroacridine-3-carbonyl)piperazine-1-carboxylate], the IC50 was found to be 240 nM.
Next, `CCCOC(=O)N1CCN(C(=O)c2ccc3c(Cl)c4c(nc3c2)CCCC4)CC1COC(=O)C(C)C` (stereo not shown) [A054, Propyl 4-(9-chloro-5,6,7,8-tetrahydroacridine-3-carbonyl)-2-((isobutyryloxy)methyl)piperazine-1-carboxylate]: 5200 nM; `CCCOC(=O)N1CCN(C(=O)c2ccc3c(Cl)c4c(nc3c2)CCCC4)CC1COC(=O)CCOC` (stereo not shown) [A055, Propyl 4-(9-chloro-5,6,7,8-tetrahydroacridine-3-carbonyl)-2-(((3-methoxypropanoyl)oxy)methyl)-piperazine-1-carboxylate]: 2400 nM; `CCCOC(=O)N1CCN(C(=O)c2ccc3c(Cl)c4c(nc3c2)CCCC4)CC1C(N)=O` (stereo not shown) [A056, Propyl 2-carbamoyl-4-(9-chloro-5,6,7,8-tetrahydroacridine-3-carbonyl)piperazine-1-carboxylate]: 1700 nM.
As for `CCCOC(=O)N1CCN(C(=O)c2ccc3c(Cl)c4c(nc3c2)CC(c2cncnc2)CC4)CC1` (stereo not shown) [A057, Propyl 4-(9-chloro-6-(pyrimidin-5-yl)-5,6,7,8-tetrahydroacridine-3-carbonyl)piperazine-1-carboxylate], the IC50 was 310 nM.
Turning to `CCCOC(=O)N1CCN(C(=O)c2ccc3c(Cl)c4c(nc3c2)CC(c2ccncc2)CC4)CC1` (stereo not shown) [A058, Propyl 4-(9-chloro-6-(pyridin-4-yl)-5,6,7,8-tetrahydroacridine-3-carbonyl)piperazine-1-carboxylate], the IC50 is 190 nM.
Regarding `CCCOC(=O)N1CCN(C(=O)c2ccc3c(Cl)c4c(nc3c2)CCCC4)C(C(N)=O)C1` (stereo not shown) [A059, Propyl 3-carbamoyl-4-(9-chloro-5,6,7,8-tetrahydroacridine-3-carbonyl)piperazine-1-carboxylate], the concentration for half-maximal inhibition (IC50) was 2300 nM.
In the case of `CCCOC(=O)N1CCN(C(=O)c2ccc3c(Cl)c4c(nc3c2)CCCC4)CC1CCO` (stereo not shown) [A060, Propyl 4-(9-chloro-5,6,7,8-tetrahydroacridine-3-carbonyl)-2-(2-hydroxyethyl)piperazine-1-carboxylate] it was 2700 nM; in that of `CCCOC(=O)N1CCN(C(=O)c2ccc3c(Cl)c4c(nc3c2)CCCC4)CC1COC(=O)CCC` (stereo not shown) [A061, Propyl 2-((butyryloxy)methyl)-4-(9-chloro-5,6,7,8-tetrahydroacridine-3-carbonyl)piperazine-1-carboxylate], 4100 nM.
